Data on 47 compounds can be found in US4795826A, “Ortho-phenylenediamine compounds” (priority 1986, dated 1989).

One assay has as its system P388 leukemia. Description: P388 leukemia in vivo (increase in lifespan of mice, i.p. tumour). Particulars: for ILSmax (percentage increase in lifespan) / ILSmax (percentage increase in lifespan), marked *: P388, at OD on days 1, 5, 9, >20% statistically significant; for ILSmax (percentage increase in lifespan): values without asterisk, controls 11 days; for active (P388): P388, at the stated dose.

Another assay has as its system Lewis lung carcinoma. The assay can be described thus: Lewis lung carcinoma in vivo (increase in lifespan of mice, i.v. tumour). Particulars: Lewis lung; for ILS (percentage increase in lifespan), marked * / ILS (percentage increase in lifespan): at OD on days 1, 5, 9, >40% statistically significant; for active (Lewis lung): at the stated dose; for ILS (percentage increase in lifespan): values without asterisk, controls 17 days.

Regarding `CNc1cc(NS(=O)(=O)c2ccccc2)ccc1Nc1c2ccccc2nc2ccccc12` [Compound 60], in the assay with P388 leukemia, the “ILSmax (percentage increase in lifespan)” value was found to be 117% and the “active (P388)” value was “Y”.
In the same order, the values of `CNc1cc(NS(C)(=O)=O)ccc1Nc1c2ccc(C)cc2nc2c(OC)cccc12` [Compound 22] are 122% and “Y”.
For `CNc1cc(NS(C)(=O)=O)ccc1Nc1c2cccc(C)c2nc2c(C)cccc12` [Compound 25], in the assay with P388 leukemia, the “ILSmax (percentage increase in lifespan)” value came to 107% and the “active (P388)” value is “Y”.
Regarding `CNc1cc(NC(=O)OC)ccc1Nc1c2ccccc2nc2c(C)cccc12` [Compound 58], in the assay on Lewis lung carcinoma, the “ILS (percentage increase in lifespan), marked *” value is on record as 48% and the “active (Lewis lung)” value was “Y”. Moreover, in the assay with P388 leukemia, the “ILSmax (percentage increase in lifespan)” value is 114% and the “active (P388)” value is “Y”.
As for `CNc1cc(NS(C)(=O)=O)ccc1Nc1c2ccccc2nc2cc(Br)ccc12` [Compound 7], in the assay with P388 leukemia, the “ILSmax (percentage increase in lifespan)” value was 94% and the “active (P388)” value is recorded as “Y”.
On to `CNc1cc(NS(C)(=O)=O)ccc1Nc1c2ccc(F)cc2nc2c(C)cccc12` [Compound 18], for which, in the assay with Lewis lung carcinoma, the “ILS (percentage increase in lifespan), marked *” value is given as 143% and the “active (Lewis lung)” value is given as “Y”. Besides, in the assay with P388 leukemia, the “ILSmax (percentage increase in lifespan), marked *” value was found to be 152% and the “active (P388)” value was “Y”.
In the case of `CNc1cc(NS(C)(=O)=O)ccc1Nc1c2ccccc2nc2cc(I)ccc12` [Compound 8], in the assay on P388 leukemia, the “ILSmax (percentage increase in lifespan)” value was 80% and the “active (P388)” value is reported as “Y”.
On to `CNc1cc(NS(C)(=O)=O)ccc1Nc1c2ccccc2nc2cc([N+](=O)[O-])ccc12` [Compound 9], for which, in the assay on P388 leukemia, the “ILSmax (percentage increase in lifespan)” value is listed as 70% and the “active (P388)” value is “Y”.
Consider `CNc1cc(NS(C)(=O)=O)ccc1Nc1c2ccccc2nc2cc(Cl)ccc12` [Compound 6], for which, in the assay on P388 leukemia, the “ILSmax (percentage increase in lifespan), marked *” value came to 149% and the “active (P388)” value is reported as “Y”.
As to `CNc1cc(NS(C)(=O)=O)ccc1Nc1c2ccc(C)cc2nc2c(C)cccc12` [Compound 16], in the assay on P388 leukemia, the “ILSmax (percentage increase in lifespan)” value is on record as 92% and the “active (P388)” value was “Y”.
In the case of `CNc1cc(NS(=O)(=O)c2ccc(N)cc2)ccc1Nc1c2ccccc2nc2ccccc12` [Compound 62], in the assay on P388 leukemia, the “ILSmax (percentage increase in lifespan)” value turned out to be 104% and the “active (P388)” value is reported as “Y”.
For `CNc1ccc2c(Nc3ccc(NS(C)(=O)=O)cc3NC)c3ccccc3nc2c1` [Compound 10], in the assay with P388 leukemia, the “ILSmax (percentage increase in lifespan), marked *” value stood at 208% and the “active (P388)” value is on record as “Y”.
Consider `O=S(=O)(Nc1ccc(Nc2c3ccccc3nc3ccccc23)c(NCCO)c1)c1ccccc1` [Compound 61], for which, in the assay on P388 leukemia, the “ILSmax (percentage increase in lifespan)” value worked out at 81% and the “active (P388)” value was “Y”.
On to `CNC(=O)c1cccc2c(Nc3ccc(NS(C)(=O)=O)cc3NC)c3cccc(C)c3nc12` [Compound 24], for which, in the assay with P388 leukemia, the “ILSmax (percentage increase in lifespan)” value was determined as 94% and the “active (P388)” value is recorded as “Y”.
For `CNc1cc(NC(=O)OC)ccc1Nc1c2ccccc2nc2cc(Cl)ccc12` [Compound 54], in that order: 104% and “Y”.
Regarding `Cc1cccc2c(Nc3ccc(NS(C)(=O)=O)cc3NCCO)c3ccccc3nc12` [Compound 29], in the assay with P388 leukemia, the “ILSmax (percentage increase in lifespan), marked *” value is listed as 159% and the “active (P388)” value was “Y”.
With `CNc1cc(NP(=O)(OC)OC)ccc1Nc1c2ccccc2nc2ccccc12` [Compound 47], in the assay with P388 leukemia, the “ILSmax (percentage increase in lifespan)” value is on record as 118% and the “active (P388)” value was “Y”.
With `CNc1cc(NC(=O)OC)ccc1Nc1c2ccccc2nc2cc(Br)ccc12` [Compound 55], in the assay with P388 leukemia, the “ILSmax (percentage increase in lifespan)” value was 101% and the “active (P388)” value is on record as “Y”.
For the compound `Cc1cccc2c(Nc3ccc(NS(C)(=O)=O)cc3N(C)CCO)c3ccccc3nc12` [Compound 46], in the assay on P388 leukemia, the “ILSmax (percentage increase in lifespan), marked *” value is on record as 152% and the “active (P388)” value is reported as “Y”.
For `CS(=O)(=O)Nc1ccc(Nc2c3ccccc3nc3ccccc23)c(NCCO)c1` [Compound 27], in the assay with P388 leukemia, the “ILSmax (percentage increase in lifespan)” value came out at 89% and the “active (P388)” value is on record as “Y”.
For the compound `CNc1cc(NS(C)(=O)=O)ccc1Nc1c2ccccc2nc2c(OC)cccc12` [Compound 13], in the assay with Lewis lung carcinoma, the “ILS (percentage increase in lifespan)” value was determined as 153% and the “active (Lewis lung)” value is recorded as “Y”. Besides, in the assay on P388 leukemia, the “ILSmax (percentage increase in lifespan), marked *” value was determined as 118% and the “active (P388)” value is listed as “Y”.
For the compound `CNc1cc(NS(C)(=O)=O)ccc1Nc1c2ccc(OC)cc2nc2c(C)cccc12` [Compound 17], in the assay on P388 leukemia, the “ILSmax (percentage increase in lifespan)” value turned out to be 102% and the “active (P388)” value is “Y”.
For `CS(=O)(=O)Nc1ccc(Nc2c3ccccc3nc3cc(Br)ccc23)c(NCCO)c1` [Compound 28], in the assay with P388 leukemia, the “ILSmax (percentage increase in lifespan)” value is reported as 117% and the “active (P388)” value is listed as “Y”.
For `CNc1cc(NC(=O)OC)ccc1Nc1c2ccccc2nc2cc(F)ccc12` [Compound 53], in that order: 110% and “Y”.
In the same order, the values of `CNc1cc(NP(=O)(OC)OC)ccc1Nc1c2ccccc2nc2cc(Br)ccc12` [Compound 48] are 77% and “Y”.
With `CNc1cc(NS(C)(=O)=O)ccc1Nc1c2cccc(OC)c2nc2c(OC)cccc12` [Compound 26], in the assay on P388 leukemia, the “ILSmax (percentage increase in lifespan)” value is reported as 84% and the “active (P388)” value was “Y”.
In the case of `CNc1cc(NC(=O)OC)ccc1Nc1c2ccccc2nc2ccccc12` [Compound 50], in the assay with Lewis lung carcinoma, the “ILS (percentage increase in lifespan), marked *” value was 122% and the “active (Lewis lung)” value was “Y”. For the same compound, in the assay on P388 leukemia, the “ILSmax (percentage increase in lifespan)” value came to 132% and the “active (P388)” value is “Y”.
As for `COC(=O)Nc1ccc(Nc2c3ccccc3nc3ccccc23)c(NCCO)c1` [Compound 51], in the assay with P388 leukemia, the “ILSmax (percentage increase in lifespan)” value amounted to 121% and the “active (P388)” value is “Y”.
For `CNc1cc(NS(C)(=O)=O)ccc1Nc1c2ccccc2nc2cc(C)ccc12` [Compound 3], in that order: 83% and “Y”.
In the same order, the values of `CNC(=O)c1cccc2c(Nc3ccc(NS(C)(=O)=O)cc3NC)c3ccc(Cl)cc3nc12` [Compound 23] are 59% and “Y”.
With `CNc1cc(NS(C)(=O)=O)ccc1Nc1c2ccc(Br)cc2nc2c(C)cccc12` [Compound 21], in the assay with P388 leukemia, the “ILSmax (percentage increase in lifespan)” value came out at 122% and the “active (P388)” value was “Y”.
`CN(CCO)c1cc(NS(C)(=O)=O)ccc1Nc1c2ccccc2nc2ccccc12` [Compound 45]: in the assay with P388 leukemia, the “ILSmax (percentage increase in lifespan), marked *” value came to 100% and the “active (P388)” value is reported as “Y”.
For the compound `CNc1cc(NS(C)(=O)=O)ccc1Nc1c2ccccc2nc2cc(OC)ccc12` [Compound 4], in the assay with P388 leukemia, the “ILSmax (percentage increase in lifespan), marked *” value is reported as 140% and the “active (P388)” value is reported as “Y”.
Regarding `CNc1cc(NC(=O)Oc2ccccc2)ccc1Nc1c2ccccc2nc2ccccc12` [Compound 66], in the assay with P388 leukemia, the “ILSmax (percentage increase in lifespan)” value is listed as 71% and the “active (P388)” value is listed as “Y”.
For the compound `CNC(=O)c1cccc2c(Nc3ccc(NS(C)(=O)=O)cc3NC)c3ccccc3nc12` [Compound 15], in the assay on P388 leukemia, the “ILSmax (percentage increase in lifespan)” value is on record as 82% and the “active (P388)” value is “Y”.
With `CNc1cc(NC(=O)OC)ccc1Nc1c2ccc(Cl)cc2nc2c(C)cccc12` [Compound 56], in the assay on Lewis lung carcinoma, the “ILS (percentage increase in lifespan)” value is 100% and the “active (Lewis lung)” value is reported as “Y”. For the same compound, in the assay on P388 leukemia, the “ILSmax (percentage increase in lifespan), marked *” value is 151% and the “active (P388)” value is “Y”.
As to `Nc1ccc(S(=O)(=O)Nc2ccc(Nc3c4ccccc4nc4ccccc34)c(NCCO)c2)cc1` [Compound 65], in the assay with P388 leukemia, the “ILSmax (percentage increase in lifespan)” value worked out at 50% and the “active (P388)” value is listed as “Y”.
Take `CNc1cc(NS(C)(=O)=O)ccc1Nc1c2ccccc2nc2cc(F)ccc12` [Compound 5]: in the assay with P388 leukemia, the “ILSmax (percentage increase in lifespan), marked *” value came to 157% and the “active (P388)” value is listed as “Y”.
As to `Cc1cccc2c(Nc3ccc(NS(C)(=O)=O)cc3NCC(O)CO)c3ccccc3nc12` (centres unmarked) [Compound 31], in the assay with P388 leukemia, the “ILSmax (percentage increase in lifespan)” value is listed as 83% and the “active (P388)” value is “Y”.
Turning to `CNc1cc(NS(C)(=O)=O)ccc1Nc1c2ccccc2nc2cc(NC(=O)OC)ccc12` [Compound 11], in the assay with P388 leukemia, the “ILSmax (percentage increase in lifespan), marked *” value was found to be 135% and the “active (P388)” value is on record as “Y”.
For `COC(=O)Nc1ccc(Nc2c3ccccc3nc3ccccc23)c(N(C)C)c1` [Compound 59], in the assay on P388 leukemia, the “ILSmax (percentage increase in lifespan)” value is 51% and the “active (P388)” value is reported as “Y”.
Turning to `CNc1cc(NS(=O)(=O)c2ccc(N)cc2)ccc1Nc1c2ccccc2nc2cc(Br)ccc12` [Compound 63], in the assay with P388 leukemia, the “ILSmax (percentage increase in lifespan)” value is on record as 115% and the “active (P388)” value was “Y”.
With `CS(=O)(=O)Nc1ccc(Nc2c3ccccc3nc3ccccc23)c(NCC(O)CO)c1` (centres unmarked) [Compound 30], in the assay with P388 leukemia, the “ILSmax (percentage increase in lifespan)” value stood at 84% and the “active (P388)” value is recorded as “Y”.
`CNc1cc(NC(=O)OC)ccc1Nc1c2ccccc2nc2cc(C)ccc12` [Compound 52]: in the assay on P388 leukemia, the “ILSmax (percentage increase in lifespan)” value was found to be 86% and the “active (P388)” value is “Y”.
In the case of `CNc1cc(NS(C)(=O)=O)ccc1Nc1c2ccc(Cl)cc2nc2c(OC)cccc12` [Compound 20], in the assay with P388 leukemia, the “ILSmax (percentage increase in lifespan)” value stood at 105% and the “active (P388)” value was “Y”.
Turning to `CNc1cc(NS(=O)(=O)c2ccc(N)cc2)ccc1Nc1c2ccccc2nc2c(C)cccc12` [Compound 64], in the assay with P388 leukemia, the “ILSmax (percentage increase in lifespan)” value was 139% and the “active (P388)” value is recorded as “Y”.
Take `CNc1cc(NP(=O)(OC)OC)ccc1Nc1c2ccccc2nc2c(C)cccc12` [Compound 49]: in the assay on P388 leukemia, the “ILSmax (percentage increase in lifespan)” value came out at 91% and the “active (P388)” value is on record as “Y”.
